SMILES strings stand for the structures.

32 compounds from US7495104B2, “Quinoline or quinazoline derivatives inhibiting auto-phosphorylation of fibroblast growth factor receptors” (Kirin Beer Kabushiki Kaisha, priority 2001, dated 2009) can be followed below.

Chain of Bek (P21802 431-767 limits assumed): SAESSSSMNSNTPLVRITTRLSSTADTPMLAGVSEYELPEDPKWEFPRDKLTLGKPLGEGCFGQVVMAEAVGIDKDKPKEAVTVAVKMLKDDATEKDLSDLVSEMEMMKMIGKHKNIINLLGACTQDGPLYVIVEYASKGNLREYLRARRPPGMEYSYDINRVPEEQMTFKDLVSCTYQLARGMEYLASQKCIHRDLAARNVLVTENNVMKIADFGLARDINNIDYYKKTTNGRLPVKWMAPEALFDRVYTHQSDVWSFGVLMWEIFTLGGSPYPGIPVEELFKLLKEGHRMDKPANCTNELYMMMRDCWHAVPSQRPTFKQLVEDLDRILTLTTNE

The assay addresses Bek (Homo sapiens, UniProt P21802). Kind of assay: Inhibitory activity against Bek-autophosphorylation using ELISA method in OCUM-2MD3 cells. In kind it is cell-based. The conditions noted are these: 1 hr with compound, read-out: IC50 (concentration necessary for inhibiting 50% of Bek-phosphorylation). In outline:
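Sandwich ELISA (anti-phosphotyrosine capture, anti-Bek detection, peroxidase, 450 nm) measured Bek autophosphorylation in OCUM-2MD3 lysates after 1 hr compound treatment at 37° C in 0.1% serum medium. IC50 derived by scaling between no-drug (100%) and excess positive control at 1000 nM (0%).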
Consider `COc1cc2c(Oc3ccc(NC(=O)NCCC(C)(C)C)cc3Cl)ccnc2cc1OCCN1CCOCC1` [Compound 126, 1-{3-Chloro-4-[6-methoxy-7-(2-morpholin-4-yl-ethoxy)-quinolin-4-yloxy]-phenyl}-3-(3,3-dimethyl-butyl)-urea], for which the IC50 was 13.3 nM. As to `COc1cc2c(Oc3ccc(NC(=O)NCCC(C)(C)C)cc3F)ccnc2cc1OCCN1CC(C)OC(C)C1` (centres unmarked) [Compound 128, 1-(3,3-Dimethyl-butyl)-3-(4-{7-[2-(2,6-dimethyl-morpholin-4-yl)-ethoxy]-6-methoxy-quinolin-4-yloxy}-3-fluoro-phenyl)-urea], the IC50 is below 10 nM. As to `COc1cc2c(Oc3ccc(NC(=O)NCCC(C)(C)C)c(F)c3)ccnc2cc1OCCCN1CCC(O)CC1` [Compound 302, 1-(3,3-Dimethyl-butyl)-3-(2-fluoro-4-{7-[3-(4-hydroxy-piperidin-1-yl)-propoxy]-6-methoxy-quinolin-4-yloxy}-phenyl)-urea], the IC50 came to 26.6 nM. On to `COc1cc2c(Oc3ccc(Nc4ccc(C(C)(C)C)cc4)cc3)ccnc2cc1OCCCN1CC(C)CC(C)C1` (centres unmarked) [Compound 233, (4-Tert-butyl-phenyl)-(4-{7-[3-(3,5-dimethyl-piperidin-1-yl)-propoxy]-6-methoxy-quinolin-4-yloxy}-phenyl)-amine], for which the IC50 worked out at 371 nM.

For the compound `COc1cc2c(Oc3ccc(NC(=O)NCCC(C)(C)C)c(Cl)c3)ccnc2cc1OCCN1CCC(CCO)CC1` [Compound 292, 1-[2-Chloro-4-(7-{2-[4-(2-hydroxy-ethyl)-piperidin-1-yl]-ethoxy}-6-methoxy-quinolin-4-yloxy)-phenyl]-3-(3,3-dimethyl-butyl)-urea], the IC50 stood at 49.6 nM. In the case of `COc1cc2c(Oc3ccc(Nc4ccc(C(C)(C)C)cc4)c(F)c3)ccnc2cc1OCCN1CCC(O)CC1` [Compound 287, 1-(2-{4-[4-(4-Tert-butyl-phenylamino)-3-fluoro-phenoxy]-6-methoxy-quinolin-7-yloxy}-ethyl)-piperidin-4-ol], the IC50 came to 254 nM.

Take `CCC(CO)(CO)NCCOc1cc2nccc(Oc3ccc(Nc4ccc(C(C)(C)C)cc4)cc3)c2cc1OC` [Compound 351, 2-(2-{4-[4-(4-Tert-butyl-phenylamino)-phenoxy]-6-methoxy-quinolin-7-yloxy}-ethylamino)-2-ethyl-propan-1,3-diol]: the IC50 was found to be 232 nM. Consider `COCC1CCN(CCCOc2cc3nccc(Oc4ccc(NC(=O)NCCC(C)(C)C)cc4)c3cc2OC)CC1` [Compound 282, 1-(3,3-Dimethyl-butyl)-3-(4-{6-methoxy-7-[3-(4-methoxymethyl-piperidin-1-yl)-propoxy]-quinolin-4-yloxy}-phenyl)-urea], for which the IC50 is 31.6 nM.

Consider `COc1cc2c(Oc3ccc(Nc4ccc(C(C)(C)C)cc4)cc3)ccnc2cc1OCCCN1CCCCC1` [Compound 34, (4-Tert-butylphenyl)-{4-[6-methoxy-7-(3-piperidin-1-ylpropoxy)-quinolin-4-yloxy]phenyl}amine], for which the IC50 came to 219 nM.

Turning to `COc1cc2c(Oc3ccc(Nc4ccc(C(C)(C)C)cc4)c(F)c3)ccnc2cc1OCCCN1CCC(CCO)CC1` [Compound 306, 2-[1-(3-{4-[4-(4-Tert-butyl-phenylamino)-3-fluoro-phenoxy]-6-methoxy-quinolin-7-yloxy}-propyl)-piperidin-4-yl]-ethanol], the IC50 was found to be 286 nM.

`COc1ccc(Nc2ccc(Oc3ccnc4cc(OC)c(OC)cc34)cc2)cc1OC` [Compound 43, (3,4-Dimethoxyphenyl)-[4-(6,7-dimethoxyquinolin-4-yloxy)-phenyl]amine]: the IC50 worked out at 3340 nM.

`COc1cc2nccc(Oc3ccc(Nc4nc(C)c(C)s4)cc3)c2cc1OC` [Compound 75, [4-(6,7-Dimethoxyquinolin-4-yloxy)phenyl]-(4,5-dimethylthiazol-2-yl)amine]: the IC50 is 5190 nM. On to `COc1cc2c(Oc3ccc(Nc4ccc(C(C)(C)C)cc4)cc3)ccnc2cc1OCCN1CC(C)OC(C)C1` (centres unmarked) [Compound 238, (4-Tert-butyl-phenyl)-(4-{7-[2-(2,6-dimethyl-morpholin-4-yl)-ethoxy]-6-methoxy-quinolin-4-yloxy}-phenyl)-amine], for which the IC50 was 47.2 nM. The result for `COc1cc2c(Oc3ccc(NC(=O)NCCC(C)(C)C)cc3)ccnc2cc1OCC(O)CN1CCC(N2CCCCC2)CC1` (centres unmarked) [Compound 261, 1-{4-[7-(3-[1,4′]Bipiperidineyl-1′-yl-2-hydroxy-propoxy)-6-methoxy-quinolin-4-yloxy]-phenyl}-3-(3,3-dimethyl-butyl)-urea] reads below 10 nM.

With `COc1cc2nccc(Oc3ccc(Nc4ccc(-c5ccccc5)cc4)cc3)c2cc1OC` [Compound 3, Biphenyl-4-yl-[4-(6,7-dimethoxyquinolin-4-yloxy)phenyl]amine], the IC50 was 4580 nM. Regarding `COc1cc2nccc(Oc3ccc(N(C)c4ccc(C(C)(C)C)cc4)cc3)c2cc1OC` [Compound 20, (4-Tert-butylphenyl)-[4-(6.7-dimethoxyquinolin-4-yloxy)phenyl]-methylamine], the IC50 worked out at 325 nM. Take `COc1cc2c(Oc3ccc(NC(=O)NCCC(C)(C)C)c(Cl)c3)ccnc2cc1OCCN1C[C@@H](C)O[C@@H](C)C1` [Compound 116, 1-(2-Chloro-4-{7-[2-(2,6-dimethyl-morpholin-4-yl)-ethoxy]-6-methoxy-quinolin-4-yloxy}-phenyl)-3-(3,3-dimethyl-butyl)-urea]: the IC50 worked out at 14.4 nM. On to `COc1cc2c(Oc3ccc(Nc4ccc(C(C)(C)C)cc4)cc3Cl)ccnc2cc1OCCCN1CCC(O)CC1` [Compound 309, 1-(3-{4-[4-(4-Tert-butyl-phenylamino)-2-chloro-phenoxy]-6-methoxy-quinolin-7-yloxy}-propyl)-piperidin-4-ol], for which the IC50 was 211 nM. Consider `COc1cc2c(Oc3ccc(NC(=O)NCCC(C)(C)C)cc3)ccnc2cc1OCCCN1C[C@@H](C)O[C@@H](C)C1` [Compound 200, 1-(3,3-Dimethyl-butyl)-3-(4-{7-[3-(2,6-dimethyl-morpholin-4-yl)-propoxy]-6-methoxy-quinolin-4-yloxy}-phenyl)-urea], for which the IC50 is 21.1 nM.

For `COc1cc2c(Oc3ccc(NC(=O)NCCC(C)(C)C)c(F)c3)ccnc2cc1OCCN1C(C)CCCC1C` (centres unmarked) [Compound 130, 1-(3,3-Dimethyl-butyl)-3-(4-{7-[2-(2,6-dimethyl-piperidin-1-yl)-ethoxy]-6-methoxy-quinolin-4-yloxy}-2-fluoro-phenyl)-urea], the IC50 was 162 nM. On to `COc1cc2c(Oc3ccc(Nc4ccc(C(C)(C)C)cc4)cc3)ccnc2cc1OCCC1CCCN1C` (centres unmarked) [Compound 27, (4-Tert-butylphenyl)-(4-{6-methoxy-7-[2-(1-methylpyrrolidin-2-yl)ethoxy]quinolin-4-yloxy}phenyl)amine], for which the IC50 turned out to be 2520 nM. As for `COc1cc2nccc(Oc3cc(C)c(NC(=O)NCCC(C)(C)C)cc3C)c2cc1OC` [Compound 142, 1-[4-(6,7-Dimethoxy-quinolin-4-yloxy)-2,5-dimethyl-phenyl]-3-(3,3-dimethyl-butyl)-urea], the IC50 came to 265 nM. For the compound `COc1cc2c(Oc3ccc(Nc4ccc(C(C)(C)C)cc4)cc3)ccnc2cc1OCCCN1CC(C)OC(C)C1` (centres unmarked) [Compound 232, (4-Tert-butyl-phenyl)-(4-{7-[3-(2,6-dimethyl-morpholin-4-yl)-propoxy]-6-methoxy-quinolin-4-yloxy}-phenyl)-amine], the IC50 came out at 103 nM. In the case of `COc1cc2c(Oc3ccc(Nc4ccc(C(C)(C)C)cc4)cc3F)ccnc2cc1OCCN(CCO)CCO` [Compound 336, 2-[(2-{4-[4-(4-Tert-butyl-phenylamino)-2-fluoro-phenoxy]-6-methoxy-quinolin-7-yloxy}-ethyl)-(2-hydroxy-ethyl)-amino]-ethanol], the IC50 worked out at 53 nM. To `COc1cc2c(Oc3ccc(NC(=O)NCCC(C)(C)C)c(Cl)c3)ccnc2cc1OCCCN1CCCN(C)CC1` [Compound 188, 1-(2-Chloro-4-{6-methoxy-7-[3-(4-methyl-[1,4]diazepan-1-yl)-propoxy]-quinolin-4-yloxy}-phenyl)-3-(3,3-dimethyl-butyl)-urea] belongs 29.9 nM; to `COc1cc2c(Oc3ccc(Nc4ccc(C(C)(C)C)cc4)cc3)ccnc2cc1OCCN1CCOCC1` [Compound 37, (4-Tert-butylphenyl)-{4-[6-methoxy-7-(2-morpholin-4-ylethoxy)quinolin-4-yloxy]phenyl}amine], 345 nM. On to `COc1cc2c(Oc3ccc(Nc4ccc(C(C)(C)C)cc4)cc3)ccnc2cc1OCC(O)CN1CC(C)OC(C)C1` (centres unmarked) [Compound 253, 1-{4-[4-(4-Tert-butyl-phenylamino)-phenoxy]-6-methoxy-quinolin-7-yloxy}-3-(2,6-dimethyl-morpholin-4-yl)-propan-2-ol], for which the IC50 turned out to be 28.5 nM. Take `COc1cc2nccc(Oc3ccc(Nc4ccc(OCc5ccccc5)cc4)cc3)c2cc1OC` [Compound 7, (4-Benzyloxyphenyl)-[4-(6,7-dimethoxyquinolin-4-yloxy)phenyl]-amine]: the IC50 turned out to be 1800 nM. As for `COc1cc2c(Oc3ccc(NC(=O)NCCC(C)(C)C)c(Cl)c3)ccnc2cc1OCCCCN1CC(C)OC(C)C1` (centres unmarked) [Compound 321, 1-(2-Chloro-4-{7-[4-(2,6-dimethyl-morpholin-4-yl)-butoxy]-6-methoxy-quinolin-4-yloxy}-phenyl)-3-(3,3-dimethyl-butyl)-urea], the IC50 was 25.4 nM. For `COc1cc2c(Oc3ccc(NC(=O)NCCC(C)(C)C)cc3F)ccnc2cc1OCCCN1CCOCC1` [Compound 326, 1-(3,3-Dimethyl-butyl)-3-{3-fluoro-4-[6-methoxy-7-(3-morpholin-4-yl-propoxy)-quinolin-4-yloxy]-phenyl}-urea], the IC50 was below 10 nM.

Take `COc1cc2nccc(Oc3ccc(NC(=O)NCCC(C)(C)C)cc3)c2cc1OCCN(C)C` [Compound 222, 1-{4-[6-(2-Dimethylamino-ethoxy)-7-methoxy-quinolin-4-yloxy]-phenyl}-3-(3,3-dimethyl-butyl)-urea]: the IC50 was found to be 24.3 nM. Take `COc1cc2c(Oc3ccc(NC(=O)NCCC(C)(C)C)cc3)ccnc2cc1OCCCN1CCC[C@H]1CO` [Compound 263, 1-(3,3-Dimethyl-butyl)-3-(4-{7-[3-(2-hydroxymethyl-pyrrolidin-1-yl)-propoxy]-6-methoxy-quinolin-4-yloxy}-phenyl)-urea]: the IC50 was below 10 nM.
